In one data set the test system is T. b. rhodesiense IL1501. Kind of data set: Antiprotozoal effect, MIC measurement in HMI-9 culture. Format: cell-based. To be noted: for MIC: Trypanosoma brucei, RHODESIENSE, 24 h, bloodstream forms, 18 + 6 hours culture. As to the method: T. b. rhodesiense IL1501, the human infectious protozoan that causes acute symptoms, was used as a Trypanosomatid protozoan. The bloodstream forms of protozoan can be cultured in a HMI-9 culture medium (Hirumi, 1989). The protozoan was always cultured at a temperature of 37° C. in the presence of 5% CO2.
In a microtiter plate (96-well, FALCON 3072), HMI-9 culture medium and HMI-9 culture medium plus glycerol added to make a final concentration of 8.33 mM are separately prepared. 89 μL of the preparation are put into only the first well, and a 60 μL aliquot of each the other wells. 1 μL of a solution of AF or a AF derivative dissolved in DMSO was added to the first well, and was then suspended. A 30 μL aliquot of the suspension was then collected, was transferred to the second well, and was suspended. These operations were repeated in this order to prepare a three-fold dilution series of drug. A 40 μL aliquot of a protozoan culture was added to each well to make a final concentration of 5×10^4 cells/well (a final concentration of glycerol of 5 mM) followed by 18-hours culturing under conditions of 37° C. and 5% CO2. (For EC50 measurement, a 10 μL aliquot of Alamar Blue was added to each well), culturing was carried out under the same conditions for 6 more hours, surviving protozoans were visually observed with a microscope. The concentration at which no motile surviving protozoan was observed was defined as MIC.

Data set [1] has as its target T1, recombinant Trypanosome AOX (TAO) enzyme (Trypanosoma brucei brucei, UniProt Q26710).
T1 construct: made in house; host or cells: Escherichia coli (membrane fraction)
Kind of data set: TAO enzyme inhibition (quinol oxidase activity, ubiquinol-1 substrate). To be noted: TAO-expressing E. coli membrane fraction, 25° C., ubiquinol-1, absorbance at 278 nm. Format: biochemical, T. brucei brucei. The procedure: Escherichia coli membrane fractions that express TAO by a plasmid harboring TAO cDNA cloned from T. brucei brucei (Fukai, Comparative Biochemistry & Physiology, 124, 141-148, 1999) were used as a recombinant Trypanosome AOX (TAO) enzyme. 50 mM Tris-HCl (pH 7.5), TAO-expressing membrane fraction (0.35 ng), and […] of an inhibitor were mixed in a 1 mL cuvette, and the mixture was incubated at 25° C. for 4 minutes. Ubiquinol-1 as a substrate was then added to the mixture to initiated the reaction, and change in absorbance at 278 nm was monitored (Shimadzu UV-3000, molar absorption coefficient ε=15 cm^−1 mM^−1).

Where [2] appears, read: Glycerol (+), final concentration of glycerol of 5 mM.

These results are taken from patent publication US9440913B2, “Dihydroxybenzene derivatives and antiprotozoal agent comprising same as active ingredient” (NAI INC., priority 2010, dated 2016).

Each structure is given as a SMILES string.

T1 sequence (Q26710 whole entry): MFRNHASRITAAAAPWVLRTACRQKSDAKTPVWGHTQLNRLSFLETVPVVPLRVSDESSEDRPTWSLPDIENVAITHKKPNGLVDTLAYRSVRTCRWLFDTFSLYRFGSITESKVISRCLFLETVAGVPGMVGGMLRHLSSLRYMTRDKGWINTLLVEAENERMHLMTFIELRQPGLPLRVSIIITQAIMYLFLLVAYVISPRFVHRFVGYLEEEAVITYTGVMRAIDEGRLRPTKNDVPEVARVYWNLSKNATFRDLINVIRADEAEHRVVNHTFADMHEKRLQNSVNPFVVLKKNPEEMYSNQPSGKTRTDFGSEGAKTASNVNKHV

As a reminder, the MIC is the lowest concentration found to suppress growth. As a reminder, the melting point is the temperature of the solid-liquid transition. What is called IC50 is the midpoint of a concentration-inhibition curve. The compound `CCCCCC(C)=CCc1c(O)c(Cl)c(C)c(C(C)=O)c1O` (mixture of isomers) [Compound 268-8, (E/Z)-3-Chloro-4,6-dihydroxy-2-methyl-5-(3-methyl-2-octenyl)acetophenone] showed a melting point of 42 to 46 °C. Further, the MIC in the data set with T. b. rhodesiense IL1501 (setting [2]) turned out to be 0.28 nM. Further, the MIC in the data set with T. b. rhodesiense IL1501 (Glycerol (−)) stood at 14.7 nM. Besides, the IC50 in data set [1] came to 0.55 nM.

Regarding `COC(=O)c1ccc(O)c(C/C=C(\C)CCC=C(C)C)c1O` [Compound 161, Methyl (E)-3-(3,7-Dimethyl-2,6-octadienyl)-2,4-dihydroxybenzoate], the melting point came to 62 °C.

With `CC(=O)c1c(C)c(Cl)c(O)c(C/C=C(\C)CCC=C(C)C)c1O` [Compound 173, (E)-3-Chloro-4,6-dihydroxy-5-(3,7-dimethyl-2,6-octadienyl)-2-methylacetophenone], the melting point lay in the range of 57 to 58 °C. For the same compound, in the data set with T. b. rhodesiense IL1501 (Glycerol (+), final concentration of glycerol of 5 mM, cell prints its own unit fM), the “Antiprotozoal Effect (MIC) Glycerol (+)” value is 0.0008 nM. Further, the MIC in the data set on T. b. rhodesiense IL1501 (Glycerol (−)) was determined as 1.4 nM. Moreover, the IC50 in data set [1] came to 0.15 nM.

As to `CC(=O)c1cc(Cl)c(O)c(CCCCCCCOC(=O)C(C)(C)C)c1O` [Compound 178-11-OPiv, 7-(3-Acetyl-5-chloro-2,6-dihydroxyphenyl)heptyl pivalate], the melting point was found to be 48 °C.

Take `Cc1c(Cl)c(O)c(CCCCCCCOC(=O)C(C)(C)C)c(O)c1C#N` [Compound 193-11-OPiv, 7-(3-Chloro-5-cyano-2,6-dihydroxy-4-methylphenyl)heptyl pivalate]: the melting point was in the range of 67 to 68 °C. Moreover, the IC50 in data set [1] came to 6 nM.

Turning to `Cc1c(Cl)c(O)c(/C=C/CCCCCCOC(=O)C(C)(C)C)c(O)c1C=O` [Compound 200-12-OPiv, (E)-8-(3-Chloro-5-formyl-2,6-dihydroxy-4-methylphenyl)-7-octenyl pivalate], the melting point lay within 57 to 58 °C. Besides, in data set [1], the IC50 was found to be 0.7 nM.

As to `CCC(=O)OCCCCCCC/C=C/c1c(O)c(Cl)c(C)c(C=O)c1O` [Compound 200-13-OCOEt, (E)-9-(3-Chloro-5-formyl-2,6-dihydroxy-4-methylphenyl)-8-nonenyl propionate], the melting point lay in the range of 72 to 73 °C. The IC50 in data set [1] was determined as 0.3 nM.

As to `C/C(=C\Cc1c(O)c(Cl)cc(C=O)c1O)CC/C=C(\C)C1CC(=O)C(C)(C)O1` (stereo not shown) [Compound 209, 5-Chloro-2,4-dihydroxy-3-[(2E,6E)-7-(5,5-dimethyl-4-oxotetrahydrohuran-2-yl)-3,7-dimethyl-2,6-heptadienyl]benzaldehyde], the melting point is 70 to 72 °C. In addition, the IC50 in data set [1] turned out to be 0.2 nM.

The compound `Cc1c(Cl)c(O)c(CCCCCCCC(=O)O)c(O)c1C=O` [Compound 215-9-COOH, 8-(3-Chloro-5-formyl-2,6-dihydroxy-4-methylphenyl)octanoic acid] came in with a melting point of 149 to 150 °C.

As for `Cc1c(Cl)c(O)c(CCCCCCCCCCCC(=O)O)c(O)c1C=O` [Compound 215-13-COOH, 12-(3-Chloro-5-formyl-2,6-dihydroxy-4-methylphenyl)dodecanoic acid], the melting point fell in the range of 130 to 131 °C. Moreover, in data set [1], the IC50 stood at 4.2 nM.

For the compound `Cc1c(Cl)c(O)c(CCCCCCCCCOC(=O)C(C)(C)C)c(O)c1C=O` [Compound 215-13-OPiv, 9-(3-Chloro-5-formyl-2,6-dihydroxy-4-methylphenyl)nonyl pivalate], the melting point came to 62 °C. In the data set on T. b. rhodesiense IL1501 (setting [2]), the MIC is 0.0081 nM. Besides, the MIC in the data set with T. b. rhodesiense IL1501 (Glycerol (−)) came out at 280 nM. Also, the IC50 in data set [1] was determined as 0.22 nM.

In turn, `CC(C)=CCC/C(C)=C/Cc1c(O)cc(C)c(C=O)c1O` [Compound 216, (E)-2,4-Dihydroxy-3-(3,7-dimethyl-2,6-octadienyl)-6-methylbenzaldehyde] yielded a melting point of 120 to 121 °C.

The compound `CC(C)=CCC/C(C)=C/Cc1c(O)ccc(C=O)c1O` [Compound 217, (E)-2,4-Dihydroxy-3-(3,7-dimethyl-2,6-octadienyl)benzaldehyde] came in with a melting point of 85 °C.

Turning to `CC(C)=CCC/C(C)=C/Cc1c(O)c(Cl)cc(C=O)c1O` [Compound 224, (E)-5-Chloro-2,4-dihydroxy-3-(3,7-dimethyl-2,6-octadienyl)benzaldehyde], the melting point lay within 94 to 95 °C.

For `C/C(=C\CC/C(C)=C/Cc1c(O)c(Cl)c(C)c(C=O)c1O)CO` [Compound 236-9-OH, 3-Chloro-4,6-dihydroxy-5-[(2E,6E)-8-hydroxy-3,7-dimethyl-2,6-octadienyl]-2-methylbenzaldehyde], the melting point lay within 99 to 99.7 °C. Also, the IC50 in data set [1] stood at 0.3 nM.

The compound `COCOC/C(C)=C/CC/C(C)=C/Cc1c(O)c(Cl)c(C)c(C=O)c1O` [Compound 236-12-OMOM, 3-Chloro-5-[(2E,6E)-3,7-dimethyl-8-(methoxymethoxy)-2,6-octadienyl]-4,6-dihydroxy-2-methylbenzaldehyde] yielded a melting point of 49 to 50 °C. Besides, the IC50 in data set [1] worked out at 0.12 nM.

In the case of `C/C(=C\Cc1c(O)c(Cl)c(C)c(C=O)c1O)CC/C=C(\C)COC1CCCO1` (stereo not shown) [Compound 236-12-OTHF, 3-Chloro-5-[(2E,6E)-3,7-dimethyl-8-(tetrahydrofuran-2-yloxy)-2,6-octadienyl]-4,6-dihydroxy-2-methylbenzaldehyde], the melting point was 35 to 36 °C. Also, in data set [1], the IC50 was 0.12 nM.

In the case of `Cc1c(Cl)c(O)c(CCCCCCCC2CC(=O)C(C)(C)O2)c(O)c1C=O` (stereo not shown) [Compound 250, 5-Chloro-2,4-dihydroxy-6-methyl-3-[7-(3,3-dimethyl-4-oxo-2-oxacyclopentyl)heptyl]benzaldehyde], the melting point fell in the range of 70 to 71 °C. The MIC with T. b. rhodesiense IL1501 (setting [2]) is 0.78 nM. In addition, the MIC in the data set on T. b. rhodesiense IL1501 (Glycerol (−)) is 12 nM. The IC50 in data set [1] came out at 0.5 nM.

For `CCCCCC(C)CCc1c(O)c(Cl)c(C)c(C=O)c1O` (stereo not shown) [Compound 265-8, 3-Chloro-4,6-dihydroxy-2-methyl-5-(3-methyloctyl)benzaldehyde], the melting point lay in the range of 65 to 67 °C. In the data set on T. b. rhodesiense IL1501 (setting [2]), the MIC is 0.011 nM. Also, the MIC in the data set on T. b. rhodesiense IL1501 (Glycerol (−)) came out at 0.46 nM. The half-inhibitory concentration (IC50) in data set [1] was 0.18 nM.

On to `C/C(C=O)=C\CC/C(C)=C/Cc1c(O)c(Cl)c(C)c(C=O)c1O` [Compound 274-9, 3-Chloro-5-[(2E,6E)-3,7-dimethyl-8-oxo-2,6-octadienyl]-4,6-dihydroxy-2-methylbenzaldehyde], for which the melting point was 111.2 to 111.4 °C. Besides, the IC50 in data set [1] came to 0.3 nM.

`C/C(=C\Cc1c(O)c(Cl)c(C)c(C=O)c1O)CC/C=C(\C)CCC1OC1(C)C` (stereo not shown) [Compound 281-12, 3-Chloro-5-[(2E,6E)-3,7-dimethyl-9-(3,3-dimethyloxiran-2-yl)-2,6-nonadienyl]-4,6-dihydroxy-2-methylbenzaldehyde]: the melting point was 36 to 37 °C. Besides, the IC50 in data set [1] came out at 0.21 nM.

For the compound `CC(=O)c1c(C)c(Cl)c(O)c(C/C=C(\C)CC/C=C(\C)CCC=C(C)C)c1O` [Compound 282-12, (E,E)-3-Chloro-4,6-dihydroxy 5-(3,7,11-trimethyl-2,6,10-dodecathenyl)-2-methylacetophenone], the melting point is 92 to 93 °C. The MIC in the data set with T. b. rhodesiense IL1501 (setting [2]) came out at 11 nM. Moreover, the MIC in the data set on T. b. rhodesiense IL1501 (Glycerol (−)) turned out to be 19 nM. Moreover, the IC50 in data set [1] came out at 0.15 nM.

Take `CC(C)=CCCC#CCc1c(O)c(Cl)c(C)c(C=O)c1O` [Compound 285-8, 3-Chloro-4,6-dihydroxy-2-methyl-5-(7-methyl-6-octen-2-ynyl)benzaldehyde]: the melting point was determined as 138 °C. Besides, the IC50 in data set [1] was determined as 0.3 nM.

The compound `Cc1c(Cl)c(O)c(CCCCCCCCCC(=O)OCC2COC(=O)O2)c(O)c1C=O` (stereo not shown) [Compound 501-16-G, 1,3 Dioxolane-2-oxo-4-methyl 10-(3-chloro-5-formyl-2,6-dihydroxy-4-methylphenyl)decanoate] had a melting point of 70 to 72 °C. The MIC in the data set with T. b. rhodesiense IL1501 (setting [2]) came to 1800 nM. Moreover, the MIC in the data set with T. b. rhodesiense IL1501 (Glycerol (−)) was 14000 nM. For the same compound, the IC50 in data set [1] stood at 0.32 nM.

`C/C(=C\Cc1c(O)c(Cl)c(C)c(C=O)c1O)CC/C=C(\C)C1OC(C)C(C)O1` (stereo not shown) [Compound 509-11, 3-Chloro-5-((2E,6E)-7-(4,5-dimethyl-1,3-dioxolane-2-yl)-3-methyl-2,6-octadienyl)-4,6-dihydroxy-2-methylbenzaldehyde] displayed a melting point of 35 to 36 °C. For the same compound, the IC50 in data set [1] came out at 0.3 nM.
